A word on the AC50: it is the concentration giving half of the maximal activity seen.

This note sets out measurements from ChEMBL document CHEMBL1201862, “PubChem BioAssay data set” (2004).

The structures appear in SMILES notation. Calls of active or inactive are those of the source. Where only a bound is given, the exact number is not on record here.

Some targets named below: Cytochrome P450 2D6 (Homo sapiens, UniProt P10635); Cytochrome P450 2C9 (Homo sapiens, UniProt P11712); Cytochrome P450 3A4 (Homo sapiens, UniProt P08684).
The target of assay [1] is T1, Corticotropin-releasing factor receptor 2/Corticotropin-releasing factor-binding protein (Homo sapiens, UniProt P24387+Q13324).
T1 sequence (Q13324 whole entry): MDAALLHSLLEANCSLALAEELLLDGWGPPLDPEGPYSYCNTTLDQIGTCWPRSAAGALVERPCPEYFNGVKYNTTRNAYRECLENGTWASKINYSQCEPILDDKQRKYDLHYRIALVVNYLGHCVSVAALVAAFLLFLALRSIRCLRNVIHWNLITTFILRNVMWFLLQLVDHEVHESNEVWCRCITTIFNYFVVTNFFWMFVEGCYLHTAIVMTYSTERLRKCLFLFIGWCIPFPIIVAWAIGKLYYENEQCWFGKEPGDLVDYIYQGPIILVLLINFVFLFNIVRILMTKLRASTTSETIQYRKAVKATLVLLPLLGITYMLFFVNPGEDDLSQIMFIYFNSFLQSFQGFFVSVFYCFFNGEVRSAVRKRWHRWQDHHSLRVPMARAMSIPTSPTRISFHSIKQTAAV
T1 sequence (P24387 whole entry): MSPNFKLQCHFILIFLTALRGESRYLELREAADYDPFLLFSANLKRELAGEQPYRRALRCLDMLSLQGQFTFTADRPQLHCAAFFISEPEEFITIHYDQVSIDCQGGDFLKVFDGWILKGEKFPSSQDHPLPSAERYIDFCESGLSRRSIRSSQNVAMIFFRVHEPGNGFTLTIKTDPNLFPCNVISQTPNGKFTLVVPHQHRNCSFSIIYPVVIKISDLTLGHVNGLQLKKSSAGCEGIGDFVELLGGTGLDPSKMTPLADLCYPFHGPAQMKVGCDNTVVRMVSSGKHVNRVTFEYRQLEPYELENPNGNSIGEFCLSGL
In words: Dose Response confirmation of uHTS hits for small molecule antagonists of the CRF-binding protein and CRF-R2 receptor complex. It is filed as functional. The settings on record: read-out: IC50_Mean.

Assay [2] deals with T1, Corticotropin-releasing factor receptor 2/Corticotropin-releasing factor-binding protein. Nature of the assay: activators of CRF receptor 2 with binding protein – uHTS hits, confirmation (AID 602473). The assay is classed as functional. Conditions: read-out: EC50_Mean.
Assay [3] concerns the target T2, Heat shock factor protein 1 (Mus musculus, UniProt P38532).
T2 sequence (P38532 whole entry): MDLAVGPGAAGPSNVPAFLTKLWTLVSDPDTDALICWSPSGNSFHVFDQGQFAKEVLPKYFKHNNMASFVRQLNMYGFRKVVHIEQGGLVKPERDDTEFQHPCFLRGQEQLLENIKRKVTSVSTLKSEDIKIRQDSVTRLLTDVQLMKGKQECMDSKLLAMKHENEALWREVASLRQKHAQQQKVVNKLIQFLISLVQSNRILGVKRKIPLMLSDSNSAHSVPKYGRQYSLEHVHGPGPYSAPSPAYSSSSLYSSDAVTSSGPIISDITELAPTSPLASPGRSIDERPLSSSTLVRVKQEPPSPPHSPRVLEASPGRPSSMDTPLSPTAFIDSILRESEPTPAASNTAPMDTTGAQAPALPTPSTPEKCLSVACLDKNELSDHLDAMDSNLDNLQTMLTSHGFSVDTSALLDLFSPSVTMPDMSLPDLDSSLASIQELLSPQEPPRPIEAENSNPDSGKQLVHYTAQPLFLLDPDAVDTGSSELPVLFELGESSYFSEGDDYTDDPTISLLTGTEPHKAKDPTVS
In words: decrease of HSF1-responsive luciferase luminescence – cell-based, NIH3T3, dose retest, confirmation (AID 2382).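 Also: NIH3T3 fibroblasts with HSF1-driven luciferase reporter stressed by proteasome inhibitor MG132; luminescence from HSF1-driven luciferase expression after 8 hours of MG132 stress.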 The assay is classed as functional.

A further assay deals with T3, Cytochrome P450 1A2 (Homo sapiens, UniProt P05177).
T3 sequence (P05177 whole entry): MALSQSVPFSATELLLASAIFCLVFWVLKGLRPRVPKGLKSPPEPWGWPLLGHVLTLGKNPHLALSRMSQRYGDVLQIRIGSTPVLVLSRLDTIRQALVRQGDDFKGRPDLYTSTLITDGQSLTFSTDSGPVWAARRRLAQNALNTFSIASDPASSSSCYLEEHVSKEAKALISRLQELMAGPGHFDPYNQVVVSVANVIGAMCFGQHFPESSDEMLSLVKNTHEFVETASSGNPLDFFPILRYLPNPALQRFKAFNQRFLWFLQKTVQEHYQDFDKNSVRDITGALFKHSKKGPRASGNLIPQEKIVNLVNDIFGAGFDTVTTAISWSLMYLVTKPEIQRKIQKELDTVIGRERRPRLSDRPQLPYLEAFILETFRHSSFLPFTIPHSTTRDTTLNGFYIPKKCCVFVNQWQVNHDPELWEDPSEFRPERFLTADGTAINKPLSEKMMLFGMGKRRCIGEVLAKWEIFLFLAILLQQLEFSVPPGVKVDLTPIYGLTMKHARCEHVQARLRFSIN

Assay [4] concerns the target T4, Rac GTPase-activating protein 1 (Homo sapiens, UniProt Q9H0H5).
T4 sequence (Q9H0H5 whole entry): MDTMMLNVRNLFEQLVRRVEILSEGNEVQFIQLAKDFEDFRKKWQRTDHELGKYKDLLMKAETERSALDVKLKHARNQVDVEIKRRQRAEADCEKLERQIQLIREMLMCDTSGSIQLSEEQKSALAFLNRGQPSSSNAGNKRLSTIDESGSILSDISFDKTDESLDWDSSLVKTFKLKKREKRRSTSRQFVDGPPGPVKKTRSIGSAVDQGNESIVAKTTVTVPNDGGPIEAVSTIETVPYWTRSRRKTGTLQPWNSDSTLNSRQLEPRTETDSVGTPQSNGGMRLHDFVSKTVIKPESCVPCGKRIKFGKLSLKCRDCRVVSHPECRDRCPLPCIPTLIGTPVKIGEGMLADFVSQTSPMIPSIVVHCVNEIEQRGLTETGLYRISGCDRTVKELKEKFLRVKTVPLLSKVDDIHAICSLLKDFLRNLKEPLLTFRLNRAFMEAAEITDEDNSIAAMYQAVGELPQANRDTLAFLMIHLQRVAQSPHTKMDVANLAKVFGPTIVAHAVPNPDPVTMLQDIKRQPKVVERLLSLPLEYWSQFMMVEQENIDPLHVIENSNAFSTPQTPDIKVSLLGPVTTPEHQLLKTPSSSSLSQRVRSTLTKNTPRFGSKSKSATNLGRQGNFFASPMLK
Nature of the assay: blockers of MgcRacGAP-driven Rac1 GTP hydrolysis – biochemical, ADP Hunter fluorescence, primary and confirmatory, confirmation (AID 624330). The assay is classed as functional.

Chain of Cytochrome P450 3A4 (P08684 whole entry): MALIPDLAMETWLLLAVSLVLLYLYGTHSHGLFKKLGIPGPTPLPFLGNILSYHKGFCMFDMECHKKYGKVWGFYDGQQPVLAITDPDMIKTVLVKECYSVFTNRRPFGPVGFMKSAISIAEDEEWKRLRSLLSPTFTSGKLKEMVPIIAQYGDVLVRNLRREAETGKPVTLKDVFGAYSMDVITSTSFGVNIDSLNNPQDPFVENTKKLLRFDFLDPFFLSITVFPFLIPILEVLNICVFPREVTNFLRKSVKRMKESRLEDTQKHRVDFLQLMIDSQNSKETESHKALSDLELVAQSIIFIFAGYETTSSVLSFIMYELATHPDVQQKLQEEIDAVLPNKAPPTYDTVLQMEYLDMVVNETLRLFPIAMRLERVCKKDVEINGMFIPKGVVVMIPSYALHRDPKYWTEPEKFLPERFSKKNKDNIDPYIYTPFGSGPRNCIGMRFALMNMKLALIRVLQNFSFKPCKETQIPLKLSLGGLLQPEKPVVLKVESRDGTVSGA
Chain of Cytochrome P450 2D6 (P10635 whole entry): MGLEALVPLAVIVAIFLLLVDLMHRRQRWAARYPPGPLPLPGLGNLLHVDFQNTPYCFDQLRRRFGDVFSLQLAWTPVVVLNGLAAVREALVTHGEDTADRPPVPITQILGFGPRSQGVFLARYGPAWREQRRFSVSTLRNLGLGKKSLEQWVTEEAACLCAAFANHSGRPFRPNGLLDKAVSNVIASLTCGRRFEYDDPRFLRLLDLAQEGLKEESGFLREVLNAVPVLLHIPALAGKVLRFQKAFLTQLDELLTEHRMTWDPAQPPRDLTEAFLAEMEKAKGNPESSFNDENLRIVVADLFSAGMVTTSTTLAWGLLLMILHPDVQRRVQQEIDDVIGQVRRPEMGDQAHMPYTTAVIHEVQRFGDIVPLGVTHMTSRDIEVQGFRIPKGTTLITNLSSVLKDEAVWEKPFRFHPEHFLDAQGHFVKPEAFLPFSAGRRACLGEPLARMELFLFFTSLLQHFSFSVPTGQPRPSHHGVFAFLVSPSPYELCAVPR
Chain of Cytochrome P450 2C9 (P11712 whole entry): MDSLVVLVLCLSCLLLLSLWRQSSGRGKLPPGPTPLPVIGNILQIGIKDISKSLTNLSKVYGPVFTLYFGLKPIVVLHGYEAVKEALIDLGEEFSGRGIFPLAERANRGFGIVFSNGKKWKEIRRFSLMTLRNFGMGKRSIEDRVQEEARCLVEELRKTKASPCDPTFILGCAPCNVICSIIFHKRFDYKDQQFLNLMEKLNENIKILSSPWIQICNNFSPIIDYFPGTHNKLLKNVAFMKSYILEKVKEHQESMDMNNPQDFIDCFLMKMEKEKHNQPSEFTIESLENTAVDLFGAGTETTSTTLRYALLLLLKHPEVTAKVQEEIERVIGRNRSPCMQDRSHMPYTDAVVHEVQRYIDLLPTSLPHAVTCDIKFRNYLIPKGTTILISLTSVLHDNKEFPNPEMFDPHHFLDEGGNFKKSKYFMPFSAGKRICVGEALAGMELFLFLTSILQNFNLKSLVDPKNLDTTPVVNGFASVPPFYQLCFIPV

Turning to `O=C(Nc1nc(-c2ccccc2)cs1)c1ccc2c(c1)S(=O)(=O)c1ccccc1C2=O`, the IC50 in assay [1] is > 47.1 µM (inactive). The EC50 in assay [2] is > 53 µM (inactive).

As for `COc1cc2c(cc1OC)C(/C=C(\O)c1ccc(C)cc1)=NCC2`, the EC50 in assay [3] was > 195 µM (not active).

For `Cc1ccc(OCCC(=O)OCC(=O)Nc2ccc(N3CCOCC3)cc2)cc1`, in assay [3], the EC50 is on record as > 195 µM (not active).

Regarding `COc1ccc(N2CCN(c3oc(Cc4ccccc4)nc3C#N)CC2)cc1`, the EC50 in assay [3] is recorded as > 195 µM (not active).

As to `C[C@@]12C=CC(=O)C=C1CC[C@@H]1C2=CC[C@]2(C)[C@@H]1CC[C@H]2C(=O)CN1CCN(c2cc(N3CCCC3)nc(N3CCCC3)n2)CC1`, the AC50 is 25.1 µM (inconclusive) on Cytochrome P450 2D6, 12.6 µM (inconclusive) on Cytochrome P450 1A2 and 12.6 µM (inconclusive) on Cytochrome P450 2C9.

As to `COc1ccc(N2CCN(C(=O)CCS(=O)(=O)c3ccc4c(c3)NC(=O)CO4)CC2)cc1`, in assay [1], the IC50 is > 47.1 µM (inactive). Moreover, the EC50 in assay [2] is > 53 µM (inactive).

With `Cc1ccc(CNC(=O)CCC(=O)c2cccs2)cc1`, the IC50 in assay [1] was > 47.1 µM (inactive). For the same compound, the EC50 in assay [2] is > 53 µM (inactive).

`COc1cccc(OC)c1C(=O)N1CCN(Cc2cccnc2)CC1`: the IC50 was > 47.1 µM (inactive) in assay [1] and 203 µM (active) in assay [4]. Besides, the EC50 in assay [2] was > 53 µM (inactive).

On to `NCCCC(=O)O` [GAMMA-AMINOBUTYRIC ACID], for which the EC50 in assay [3] is > 195 µM (not active). The half-maximal activity concentration (AC50) at Cytochrome P450 1A2 was 31.6 µM (inconclusive).

As to `CCC(C)c1ccc(S(=O)(=O)N2CCN(CC(O)COCC3CCCO3)CC2)cc1` (stereo not drawn), in assay [1], the IC50 was > 47.1 µM (inactive). The EC50 in assay [2] is > 53 µM (inactive).

As to `Cc1cc(OCCCC(=O)Nc2cc(S(=O)(=O)N3CCOCC3)ccc2N2CCOCC2)ccc1Cl`, the IC50 in assay [1] is > 47.1 µM (inactive). Further, in assay [2], the EC50 is > 53 µM (inactive).

As for `COC(=O)N1CCC2(CCCN(C(=O)Nc3ccc(OC)cc3)C2)CC1`, the AC50 on Cytochrome P450 1A2 is 20 µM (inconclusive); on Cytochrome P450 3A4 it was 25.1 µM (inconclusive).

For `CCCCOc1cccc(C2C(C(=O)c3cccs3)=C(O)C(=O)N2Cc2cccnc2)c1` (stereo not drawn), the EC50 in assay [3] is > 195 µM (not active).

On to `Cc1ccc(S(=O)(=O)N/N=C/c2c(C)nn(-c3ccccc3)c2C)cc1`, for which the EC50 in assay [3] is > 195 µM (not active).

Consider `O=C(CC1CCCCC1)NCc1ccccn1`, for which the EC50 in assay [3] is given as > 195 µM (not active).

As for `CCN(c1ccccc1)S(=O)(=O)c1cc(NC(=O)CSc2nnc(O)nc2O)ccc1Cl`, the IC50 in assay [1] was > 47.1 µM (inactive). Besides, the EC50 in assay [2] is > 53 µM (inactive).

Consider `CCOc1ccc2nc(NC(=O)/C=C/c3ccc4c(c3)OCO4)sc2c1`, for which, in assay [3], the EC50 is reported as > 195 µM (not active).

On to `O=C1c2ccccc2-c2ncnc3c(N4CCOCC4)cc(N4CCOCC4)c1c23`, for which, in assay [1], the IC50 was > 47.1 µM (inactive). Further, in assay [2], the EC50 was > 53 µM (inactive).

Take `COc1ccc(Nc2nc(Cl)nc(NCc3ccco3)n2)c(OC)c1`: the IC50 in assay [1] is > 47.1 µM (inactive). Also, the EC50 in assay [2] is > 53 µM (inactive).

With `Cc1ccc(NC(=O)Cn2cnc3c(cnn3C(C)(C)C)c2=O)cc1`, the AC50 is 14.1 µM (inconclusive) on Cytochrome P450 2D6, 31.6 µM (inconclusive) on Cytochrome P450 1A2 and 12.6 µM (inconclusive) on Cytochrome P450 3A4.

`Cc1ccccc1C(=O)NCC(=O)OC1CCCCC1=O` (stereo not drawn): in assay [1], the IC50 is > 47.1 µM (inactive). Moreover, the EC50 in assay [2] was > 53 µM (inactive).

`CCCc1cc(=O)nc(SCC(=O)Nc2ccc(OC(F)F)cc2)[nH]1`: in assay [1], the IC50 is > 47.1 µM (inactive). Moreover, the EC50 in assay [2] was > 53 µM (inactive).

As to `CN1N=C2c3ccccc3CCC2C1c1ccc(C(F)(F)F)cc1` (stereo not drawn), the EC50 in assay [3] was 79.4 µM (active).

In the case of `Cn1c2ccccc2c2cnn(CC(=O)N3CCC4(CC3)OCCO4)c(=O)c21`, the EC50 in assay [3] is 39.3 µM (active).

In the case of `COc1cccc(N2CCN(C(S)=Nc3cc(C)cc(C)c3)CC2)c1`, the EC50 in assay [3] is 94.4 µM (active).
